Tests used:
[1] = tested on: primigravid patients with subchorionic hematoma; assay: Randomized clinical trial, vaginal capsules of example 4 (10 mg ALA) vs. progesterone and untreated controls: reabsorption of subchorionic hematoma, pelvic pain, vaginal bleeding, abortions; format: in vivo, women; details: number of abortions per group (27 patients each); ALA p ≤ 0.05 vs progesterone and control groups
[2] = tested on: fragments of amniochorial membranes; details: pre-treatment with ALA; cited from earlier work
[3] = tested on: primigravid patients with subchorionic hematoma; assay: Randomized clinical trial, vaginal capsules of example 4 (10 mg ALA) vs. progesterone and untreated controls: reabsorption of subchorionic hematoma, pelvic pain, vaginal bleeding, abortions; format: in vivo, women; details: for Pel. pain, 2nd visit / Vaginal bleeding, 2nd visit: 20 days after the first visit; for Pel. pain, 2nd visit: ALA p ≤ 0.05 vs the other two groups; for Vaginal bleeding, 2nd visit: no significant differences between the three groups; for Pel. pain, visit upon enrolment / Vaginal bleeding, visit upon enrolment: share of patients with symptom at enrolment (baseline); for Improvement (%) mean ± st. error (resorption of the subchorionic hematoma): vaginal, ALA 10 mg/day or progesterone 400 mg daily, ALA p ≤ 0.05 vs progesterone and control groups
Experimental: Randomized trial, vaginal capsules of example 4 vs. progesterone and placebo Number of participants: […] (27 medical device, 27 progesterone, 22 placebo)
In primigravid patients between the 7th and 12th week of gestation, the trial had the following objective: • evaluating whether the administration of 10 mg ALA vaginally is associated with the reabsorption of the subchorionic hematoma.
Reduction or disappearance of: • pelvic pain • vaginal bleeding
• Women aged 20-40 • Primigravid between 7th e and 12th weeks of gestation • Presence of pelvic pain • With or without moderate vaginal bleeding • Presence of the subchorionic hematoma detected by ultrasound
(§1) • Absence of the fetus • Absence of heartbeat • Presence of uterine abnormalities • Presence of fetal abnormalities • Presence of multiple pregnancies • Presence of pre-pregnancy or gestational abnormalities • Diagnosis of allergic reaction to progesterone • Presence of ongoing therapies with anticoagulants or antihypertensives • Presence of karyotypic abnormalities
The women enrolled to be treated with ALA or progesterone were randomized into 2 groups: • 27 were administered with vaginal capsules containing 10 mg ALA 1 per day until resolution of the clinical condition • 27 were administered with vaginal capsules containing 400 mg progesterone daily.
The women in the control group were those who refuse any medical treatment.
(§2) Three visits were scheduled: • 1) Enrolment • 2) 20 days after the first visit • 3) 60 days after the first visit
In each visit, a "blinded" operator carried out the ultrasound examination to evaluate the subchorionic hematoma and the subjective (pelvic pain) and objective (vaginal bleeding) symptoms were recorded.

[4] = tested on: primigravid patients with threat of spontaneous abortion; format: in vivo, women; details: 60 patients per group, vaginal, ALA 10 mg/day or progesterone 400 mg daily, p ≤ 0.05; for Absence of symptoms: post treatment
Experimental: Randomized trial, vaginal capsules of example 4 vs. progesterone and placebo Number of participants: 120 (60 medical device, 60 progesterone)
In primigravid patients between the 7th and 12th week of gestation, the trial had the following objective: • evaluating whether the administration of 10mg ALA vaginally is associated with the reduction of the number of spontaneous abortions.
Reduction or disappearance of symptoms related to the risk of spontaneous abortion after therapy
as §1, with “•” for “• Absence of the fetus •”
The women enrolled to be treated with ALA or progesterone were randomized into 2 groups: • 60 were administered with vaginal capsules containing 10 mg ALA 1 per day until resolution of the clinical condition • 60 were administered with vaginal capsules containing 400 mg progesterone daily.
as §2

Row | Compound | Spontaneous abortions [1] | release of MMP9 and cytokine-induced prostaglandin E2 [2] | weakening of membranes induced by TNF [2] | Pel. pain, 2nd visit [3] [%] | Vaginal bleeding, 2nd visit [3] [%] | Pel. pain, visit upon enrolment [3] [%] | Vaginal bleeding, visit upon enrolment [3] [%] | Improvement (%) mean ± st. error (resorption of the subchorionic hematoma) [3] [%] | Abortion [4] [%] | Absence of symptoms [4] [%]
1 | O=C(O)CCCCC1CCSS1 (stereo not drawn) [ALA, α-lipoic acid] | 3 | able to inhibit | able to inhibit | 0 | 0 | 100 | 54 | 83.9 ± 3.9 | 15 | 85
2 | CC(=O)[C@H]1CC[C@H]2[C@@H]3CCC4=CC(=O)CC[C@]4(C)[C@H]3CC[C@]12C [Progesterone, reference compound] | 6 |  |  | 14 | 0 | 100 | 57 | 49.7 ± 2.7 | 25 | 75

Source: patent EP3244885B1, “LIPOIC ACID FOR TREATING OR PREVENTING THREATENED MISCARRIAGE OR PRETERM DELIVERY” (priority 2015, dated 2016)
